In patent US12338237B2, “Derivatives having 1,2,3,4-tetrahydronaphthalene moiety or pharmaceutically acceptable salt thereof and pharmaceutical compositions comprising the same” (YUHAN CORPORATION, priority 2019, dated 2025):
pIC50: −log10 of the molar value.

How the values were obtained:
[1] = molecular target: glucosylceramide synthase (GCS) (Homo sapiens (Human), UniProt Q16739); experiment: Evaluation of inhibitory activities against GCS (enzyme reaction with A549 cell lysate, NBD C6-ceramide, HPLC fluorescence); assay type: biochemical; settings: GCS activity in A549 cell lysate, 37° C. for 90 minutes
Chain of glucosylceramide synthase (GCS) (Q16739 whole entry, looked up): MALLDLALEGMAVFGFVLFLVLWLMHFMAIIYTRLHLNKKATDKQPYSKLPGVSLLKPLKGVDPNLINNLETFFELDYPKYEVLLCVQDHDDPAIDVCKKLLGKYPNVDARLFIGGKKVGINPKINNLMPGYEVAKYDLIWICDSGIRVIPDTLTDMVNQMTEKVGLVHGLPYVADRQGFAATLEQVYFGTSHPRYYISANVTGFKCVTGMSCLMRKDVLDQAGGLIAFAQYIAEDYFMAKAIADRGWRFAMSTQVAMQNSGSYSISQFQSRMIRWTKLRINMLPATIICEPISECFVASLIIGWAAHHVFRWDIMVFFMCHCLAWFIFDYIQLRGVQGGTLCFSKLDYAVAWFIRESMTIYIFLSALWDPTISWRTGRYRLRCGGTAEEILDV
In short: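 Lysate of A549 cells in 50 mM HEPES pH 7.3 incubated with test compound and NBD C6-ceramide at 37 °C for 90 min; lipids extracted with chloroform/methanol and GlcCer and ceramide peaks quantified by HPLC fluorescence. Activity from GlcCer area fraction, normalised between DMSO and ibiglustat controls.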

[2] = test system: GM1 production; experiment: cells; assay type: cell-based; settings: Homo sapiens, Jurkat, 72 h

SMILES	pIC50 [1]	pIC50 [2]
COc1ccccc1-c1ccc2c(c1)C(NC(=O)O[C@@H]1CN3CCC1CC3)CCC2 (stereo partly drawn) [Example 75, (S)-quinuclidin-3-yl (7-(2-methoxyphenyl)-1,2,3,4-tetrahydronaphthalen-1-yl)carbamate]	7.64	6.86
CCOc1ccccc1-c1ccc2c(c1)C(NC(=O)O[C@@H]1CN3CCC1CC3)CCC2 (stereo partly drawn) [Example 76, (S)-quinuclidin-3-yl (7-(2-ethoxyphenyl)-1,2,3,4-tetrahydronaphthalen-1-yl)carbamate]	7.73	6.81
COc1cccc(-c2ccc3c(c2)C(NC(=O)O[C@@H]2CN4CCC2CC4)CCC3)c1 (stereo partly drawn) [Example 77, (S)-quinuclidin-3-yl (7-(3-methoxyphenyl)-1,2,3,4-tetrahydronaphthalen-1-yl)carbamate]	7.13	6.71
CC(C)Oc1ccccc1-c1ccc2c(c1)C(NC(=O)O[C@@H]1CN3CCC1CC3)CCC2 (stereo partly drawn) [Example 78, (S)-quinuclidin-3-yl (7-(2-isopropoxyphenyl)-1,2,3,4-tetrahydronaphthalen-1-yl)carbamate]	7.52	6.64
COCCOc1ccc(-c2ccc3c(c2)C(NC(=O)O[C@@H]2CN4CCC2CC4)CCC3)cc1 (stereo partly drawn) [Example 79, (S)-quinuclidin-3-yl (7-(4-(2-methoxyethoxy)phenyl)-1,2,3,4-tetrahydronaphthalen-1-yl)carbamate]	7.89	7.18
COc1ccc(-c2ccc3c(c2)C(NC(=O)O[C@@H]2CN4CCC2CC4)CCC3)cc1 (stereo partly drawn) [Example 80, (S)-quinuclidin-3-yl (7-(4-methoxyphenyl)-1,2,3,4-tetrahydronaphthalen-1-yl)carbamate]	7.81	6.65
CCOc1ccc(-c2ccc3c(c2)C(NC(=O)O[C@@H]2CN4CCC2CC4)CCC3)cc1 (stereo partly drawn) [Example 81, (S)-quinuclidin-3-yl (7-(4-ethoxyphenyl)-1,2,3,4-tetrahydronaphthalen-1-yl)carbamate]	7.20	6.39
CCCOc1ccc(-c2ccc3c(c2)C(NC(=O)O[C@@H]2CN4CCC2CC4)CCC3)cc1 (stereo partly drawn) [Example 82, (S)-quinuclidin-3-yl (7-(4-propoxyphenyl)-1,2,3,4-tetrahydronaphthalen-1-yl)carbamate]	7.52	7.84
CC(C)Oc1ccc(-c2ccc3c(c2)C(NC(=O)O[C@@H]2CN4CCC2CC4)CCC3)cc1 (stereo partly drawn) [Example 83, (S)-quinuclidin-3-yl (7-(4-isopropoxyphenyl)-1,2,3,4-tetrahydronaphthalen-1-yl)carbamate]	7.41	6.41
O=C(NC1CCCc2ccc(-c3ccc4c(c3)OCO4)cc21)O[C@@H]1CN2CCC1CC2 (stereo partly drawn) [Example 84, (S)-quinuclidin-3-yl (7-(benzo[d]dioxol-5-yl)-1,2,3,4-tetrahydronaphthalen-1-yl)carbamate]	7.12	6.84
Cc1cccc(-c2ccc3c(c2)C(NC(=O)O[C@@H]2CN4CCC2CC4)CCC3)c1 (stereo partly drawn) [Example 85, (S)-quinuclidin-3-yl (7-(m-tolyl)-1,2,3,4-tetrahydronaphthalen-1-yl)carbamate]	7.13	6.72
CC1(C)CCc2cc(-c3ccc(F)cc3)ccc2C1NC(=O)O[C@@H]1CN2CCC1CC2 (stereo partly drawn) [Example 86, (S)-quinuclidin-3-yl (6-(4-fluorophenyl)-2,2-dimethyl-1,2,3,4-tetrahydronaphthalen-1-yl)carbamate]	8.59	7.85
CC1(C)CCc2cc(-c3ccc(Cl)cc3)ccc2C1NC(=O)O[C@@H]1CN2CCC1CC2 (stereo partly drawn) [Example 87, (S)-quinuclidin-3-yl (6-(4-chlorophenyl)-2,2-dimethyl-1,2,3,4-tetrahydronaphthalen-1-yl)carbamate]	8.22	7.71
CC1(C)CCc2cc(-c3ccc(C(F)(F)F)cc3)ccc2C1NC(=O)O[C@@H]1CN2CCC1CC2 (stereo partly drawn) [Example 88, (S)-quinuclidin-3-yl (2,2-dimethyl-6-(4-(trifluoromethyl)phenyl)-1,2,3,4-tetrahydronaphthalen-1-yl)carbamate]	8.46	7.95
CC1(C)CCc2cc(-c3ccc(OC(F)(F)F)cc3)ccc2C1NC(=O)O[C@@H]1CN2CCC1CC2 (stereo partly drawn) [Example 89, (S)-quinuclidin-3-yl (2,2-dimethyl-6-(4-(trifluoromethoxy)phenyl)-1,2,3,4-tetrahydronaphthalen-1-yl)carbamate]	8.66	8.11
CC1(C)CCc2cc(-c3cccc(F)c3)ccc2C1NC(=O)O[C@@H]1CN2CCC1CC2 (stereo partly drawn) [Example 90, (S)-quinuclidin-3-yl (6-(3-fluorophenyl)-2,2-dimethyl-1,2,3,4-tetrahydronaphthalen-1-yl)carbamate]	9.00	8.31
CC1(C)CCc2cc(-c3cccc(Cl)c3)ccc2C1NC(=O)O[C@@H]1CN2CCC1CC2 (stereo partly drawn) [Example 91, (S)-quinuclidin-3-yl (6-(3-chlorophenyl)-2,2-dimethyl-1,2,3,4-tetrahydronaphthalen-1-yl)carbamate]	9.09	8.54
CC1(C)CCc2cc(-c3cccc(C(F)(F)F)c3)ccc2C1NC(=O)O[C@@H]1CN2CCC1CC2 (stereo partly drawn) [Example 92, (S)-quinuclidin-3-yl (2,2-dimethyl-6-(3-(trifluoromethyl)phenyl)-1,2,3,4-tetrahydronaphthalen-1-yl)carbamate]	8.98	8.57
CC1(C)CCc2cc(-c3cccc(OC(F)(F)F)c3)ccc2C1NC(=O)O[C@@H]1CN2CCC1CC2 (stereo partly drawn) [Example 93, (S)-quinuclidin-3-yl (2,2-dimethyl-6-(3-(trifluoromethoxy)phenyl)-1,2,3,4-tetrahydronaphthalen-1-yl)carbamate]	8.75	9.41
CC1(C)CCc2cc(-c3ccccc3F)ccc2C1NC(=O)O[C@@H]1CN2CCC1CC2 (stereo partly drawn) [Example 94, (S)-quinuclidin-3-yl (6-(2-fluorophenyl)-2,2-dimethyl-1,2,3,4-tetrahydronaphthalen-1-yl)carbamate]	9.01	8.51
CC1(C)CCc2cc(-c3ccccc3Cl)ccc2C1NC(=O)O[C@@H]1CN2CCC1CC2 (stereo partly drawn) [Example 95, (S)-quinuclidin-3-yl (6-(2-chlorophenyl)-2,2-dimethyl-1,2,3,4-tetrahydronaphthalen-1-yl)carbamate]	9.07	9.91
CC1(C)CCc2cc(-c3ccccc3C(F)(F)F)ccc2C1NC(=O)O[C@@H]1CN2CCC1CC2 (stereo partly drawn) [Example 96, (S)-quinuclidin-3-yl (2,2-dimethyl-6-(2-(trifluoromethyl)phenyl)-1,2,3,4-tetrahydronaphthalen-1-yl)carbamate]	8.75	8.48
CC1(C)CCc2cc(-c3ccccc3OC(F)(F)F)ccc2C1NC(=O)O[C@@H]1CN2CCC1CC2 (stereo partly drawn) [Example 97, (S)-quinuclidin-3-yl (2,2-dimethyl-6-(2-(trifluoromethoxy)phenyl)-1,2,3,4-tetrahydronaphthalen-1-yl)carbamate]	9.07	8.86
Cc1ccc(-c2ccc3c(c2)CCC(C)(C)C3NC(=O)O[C@@H]2CN3CCC2CC3)cc1 (stereo partly drawn) [Example 98, (S)-quinuclidin-3-yl (2,2-dimethyl-6-(p-tolyl)-1,2,3,4-tetrahydronaphthalen-1-yl)carbamate]	8.77	8.69
